Results published in the supplement of paper PMC11451515.

System: SEM cells
Assay: cell viability relative to DMSO control; higher = less cytotoxic
Conditions: 48 h
Method in brief: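 NOMO1 or SEM (500 cells/well) or P12-Ichikawa (1000 cells/well) leukemia cells were adapted for at least four passages in each medium. They were seeded in 1536-well plates (5 μl) and pin-dosed with library compounds in DMSO over an 11-point threefold series, 47 μM to 0.79 nM. CellTiter-Glo One luminescence was read after 48 h at 37°C. Viability is the per-plate percentage relative to DMSO wells, with cell-free wells as background.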

[1] = HPLM + 10% dialyzed FBS, 0.000781 µM
[2] = HPLM + 10% dialyzed FBS, 0.00234 µM
[3] = HPLM + 10% dialyzed FBS, 0.00702 µM
[4] = HPLM + 10% dialyzed FBS, 0.0211 µM
[5] = HPLM + 10% dialyzed FBS, 0.0632 µM
[6] = HPLM + 10% dialyzed FBS, 0.19 µM
[7] = HPLM + 10% dialyzed FBS, 0.569 µM
[8] = HPLM + 10% dialyzed FBS, 1.71 µM
[9] = HPLM + 10% dialyzed FBS, 5.12 µM
[10] = HPLM + 10% dialyzed FBS, 15.4 µM
[11] = HPLM + 10% dialyzed FBS, 46.1 µM
[12] = RPMI 5 mM glucose + 10% FBS, 0.000781 µM
[13] = RPMI 5 mM glucose + 10% FBS, 0.00234 µM
[14] = RPMI 5 mM glucose + 10% FBS, 0.00702 µM
[15] = RPMI 5 mM glucose + 10% FBS, 0.0211 µM
[16] = RPMI 5 mM glucose + 10% FBS, 0.0632 µM
[17] = RPMI 5 mM glucose + 10% FBS, 0.19 µM
[18] = RPMI 5 mM glucose + 10% FBS, 0.569 µM
[19] = RPMI 5 mM glucose + 10% FBS, 1.71 µM
[20] = RPMI 5 mM glucose + 10% FBS, 5.12 µM
[21] = RPMI 5 mM glucose + 10% FBS, 15.4 µM
[22] = RPMI 5 mM glucose + 10% FBS, 46.1 µM
[23] = RPMI 5 mM glucose + 10% dialyzed FBS, 0.000781 µM
[24] = RPMI 5 mM glucose + 10% dialyzed FBS, 0.00234 µM
[25] = RPMI 5 mM glucose + 10% dialyzed FBS, 0.00702 µM
[26] = RPMI 5 mM glucose + 10% dialyzed FBS, 0.0211 µM
[27] = RPMI 5 mM glucose + 10% dialyzed FBS, 0.0632 µM
[28] = RPMI 5 mM glucose + 10% dialyzed FBS, 0.19 µM
[29] = RPMI 5 mM glucose + 10% dialyzed FBS, 0.569 µM
[30] = RPMI 5 mM glucose + 10% dialyzed FBS, 1.71 µM
[31] = RPMI 5 mM glucose + 10% dialyzed FBS, 5.12 µM
[32] = RPMI 5 mM glucose + 10% dialyzed FBS, 15.4 µM
[33] = RPMI 5 mM glucose + 10% dialyzed FBS, 46.1 µM

Compound	cell viability [1] [%]	cell viability [2] [%]	cell viability [3] [%]	cell viability [4] [%]	cell viability [5] [%]	cell viability [6] [%]	cell viability [7] [%]	cell viability [8] [%]	cell viability [9] [%]	cell viability [10] [%]	cell viability [11] [%]	cell viability [12] [%]	cell viability [13] [%]	cell viability [14] [%]	cell viability [15] [%]	cell viability [16] [%]	cell viability [17] [%]	cell viability [18] [%]	cell viability [19] [%]	cell viability [20] [%]	cell viability [21] [%]	cell viability [22] [%]	cell viability [23] [%]	cell viability [24] [%]	cell viability [25] [%]	cell viability [26] [%]	cell viability [27] [%]	cell viability [28] [%]	cell viability [29] [%]	cell viability [30] [%]	cell viability [31] [%]	cell viability [32] [%]	cell viability [33] [%]
Cc1cnc(Nc2ccc(OCCN3CCCC3)cc2)nc1Nc1cccc([S+](=O)([O-])NC(C)(C)C)c1	83.6	93.2	93.9	88.2	96.3	89.5	96.7	102	96.1	68.2	67.2	88.9	95.8	95.4	111	104	106	108	88.5	89.9	90.1	77.2	83.5	97.3	98.8	106	98.2	99.2	106	98.1	82.4	84.5	71.9
N=C(N)c1ccc(OCCCCCOc2ccc(C(=N)N)cc2)cc1	72.7	115	112	125	123	127	118	122	106	101	46.4	–	–	–	–	–	–	–	–	–	–	–	64.9	111	146	138	121	118	105	103	113	120	57.8
COc1ccc2cc(-c3[nH]c(-c4ccc([S+](C)[O-])cc4)nc3-c3ccncc3)ccc2c1 (stereo not given)	92.4	104	105	109	109	114	121	107	126	127	107	76.8	105	96.3	85.9	95	101	101	106	110	111	71.9	88.6	109	102	105	101	116	127	109	111	116	88.9
Cc1ccccc1C(C(=O)NC1CCCCC1)N(C(=O)CNc1ccc(C#N)cc1)c1cccc(F)c1 (stereo not given)	88.7	116	119	121	124	118	118	105	118	103	111	113	118	105	106	105	119	103	96.9	95	93.4	106	85	107	119	95.4	97	103	91.6	108	97.6	101	89.5
Cl.Cl.Fc1ccc(C(OCCN2CCN(CCCc3ccccc3)CC2)c2ccc(F)cc2)cc1	97.4	96	99.3	104	104	93.2	97.1	113	111	99.7	32.4	111	112	111	120	109	114	103	107	102	115	22.3	84.9	99.5	105	118	120	124	130	122	120	110	27.9
COc1cc(/C=C/C(=O)CC(=O)/C=C/c2ccc(O)c(OC)c2)ccc1O	66.6	96.9	108	98.8	102	99.5	104	118	90.4	15.1	5.19	77.5	114	119	128	137	120	120	128	99.5	23.6	5.59	72.8	96.8	106	108	107	115	107	118	90.8	34.8	5.02
N/C(=N\C(=O)c1nc(Cl)c(N)nc1N)NCc1ccccc1	74.5	91.8	92.9	106	91.3	94.6	113	102	98.8	85	77.2	76.4	91.1	95.2	94.3	83.8	96.5	84.3	97.3	94.6	62.3	43.5	91	103	94	102	81.6	99.8	94.2	99.5	90.8	76.2	59.7
CC(C)(C)C1=NC2=C([NH]1)C3=CC=C(F)C=C3C4=C2\C=C/NC4=O	118	114	130	130	125	116	111	89	38.8	32.1	50.1	96.8	116	141	115	126	138	114	98.6	37.2	18.1	32.3	–	–	–	–	–	–	–	–	–	–	–
Cn1cc(-c2ccc3ncc(Cc4ccc5ncccc5c4)n3n2)cn1	93.2	108	103	98.8	101	112	94.3	99.5	89.9	72.8	71	113	117	122	109	131	122	115	107	123	74	79.4	96.2	103	102	101	112	109	111	106	98.8	71.2	67.3
Nc1cccc(-c2cc3c(Oc4cccc(O)c4)ncnc3[nH]2)c1	–	–	–	–	–	–	–	–	–	–	–	70.7	122	132	143	145	123	132	121	88.8	62.3	9.75	69.1	123	132	125	131	116	133	121	80.4	56	13.4
O=C1c2cccc(O)c2C(=O)c2c(O)cc(CO)cc21	101	97.7	107	119	111	34	110	105	102	97.4	109	105	103	99.9	110	93	45	101	84.2	92.3	103	103	102	97.2	100	91.7	91.2	45.1	85.9	86.4	94.2	92.6	85.3
NC12CC3CC(CC(C3)C1)C2	45.1	106	70.8	106	125	114	113	124	98.1	123	119	42.3	102	70.6	104	109	109	102	107	89	110	104	33.7	96.5	71.4	108	114	115	112	122	110	131	107
CN(C)[C@H]\1[C@@H]2[C@@H](O)[C@@H]\3C(=C)C4=C(C(=CC=C4)O)C(=O)C3=C(\O)[C@@]2(O)C(=O)\C(=C1O)C(N)=O	85.1	91.5	81.1	97.1	90.4	98.6	98.2	113	96.5	97.8	91.6	104	97.8	82.5	119	112	124	118	118	105	93.9	79.7	112	121	86.7	108	122	125	106	123	114	107	91.6
CC1OC(OC/2=C(/OC3=C(C(=CC(=C3)O)O)C2=O)C4=CC=C(O)C=C4)C(O)C(OC(C)=O)C1OC(C)=O (stereo not given)	117	120	116	113	105	112	106	113	106	102	77.7	–	–	–	–	–	–	–	–	–	–	–	100	101	114	102	110	103	98.1	95.5	108	90.5	77.1
CN(C)C(=O)COC(=O)Cc1ccc(OC(=O)c2ccc(NC(=N)N)cc2)cc1	107	113	122	112	125	126	119	119	112	118	61.2	102	110	126	117	130	126	139	130	114	107	61.7	–	–	–	–	–	–	–	–	–	–	–
